The values that follow come from ChEMBL document CHEMBL1131189, “Conformationally restricted analogues of 1N,12N-bisethylspermine: synthesis and growth inhibitory effects on human tumor cell lines” (1998).

For assay [1], the system named is DU-145. The assay is described as follows: The concentration levels of spermine (SP) evaluated for the polyamine and analogue levels in DU145 cells treated with the compound concentration of 0 uM on fifth day of treatment. The following applies: Homo sapiens. It counts as functional, cell-based.
Assay [2] relates to DU-145. The assay is described as follows: The concentration levels of putrescine (PU) evaluated for the polyamine and analogue levels in DU145 cells treated with the compound concentration of 5 uM on third day of treatment. It counts as functional, cell-based. The following applies: Homo sapiens.
The test system of assay [3] is DU-145. The assay is described as follows: The concentration levels of spermidine (SD), evaluated for the polyamine and analogue levels in DU145 cells treated with the compound concentration of 0 uM on third day of treatment. It counts as functional, cell-based. Conditions: Homo sapiens.
Another assay relates to PC-3. Nature of the assay: Growth inhibitory activity was measured for human PC-3 tumor cell line. It counts as functional. The following applies: read-out: ID50 (the source's name).
For assay [4], the system named is DU-145. The assay is described as follows: The concentration levels of analogue evaluated for the polyamine and analogue levels in DU145 cells treated with the compound concentration of 5 uM on third day of treatment. It counts as functional, cell-based. Conditions: Homo sapiens.
Assay [5] has as its system DU-145. The assay is described as follows: The concentration levels of spermidine (SD), evaluated for the polyamine and analogue levels in DU145 cells treated with the compound concentration of 5 uM on third day of treatment. It counts as functional, cell-based. The following applies: Homo sapiens.
For assay [6], the system named is DU-145. Nature of the assay: The concentration levels of spermine (SP) evaluated for the polyamine and analogue levels in DU145 cells treated with the compound concentration of 5 uM on fifth day of treatment. It counts as functional, cell-based. Conditions: Homo sapiens.
The subject of assay [7] is DU-145. The assay is described as follows: The concentration levels of analogue evaluated for the polyamine and analogue levels in DU145 cells treated with the compound concentration of 5 uM on fifth day of treatment. It counts as functional, cell-based. The following applies: Homo sapiens.
The subject of assay [8] is DU-145. Nature of the assay: The concentration levels of analogue evaluated for the polyamine and analogue levels in DU145 cells treated with the compound concentration of 0 uM on fifth day of treatment. It counts as functional, cell-based. The following applies: Homo sapiens.
In assay [9] the test system is DU-145. Nature of the assay: The concentration levels of spermidine (SD) evaluated for the polyamine and analogue levels in DU145 cells treated with the compound concentration of 0 uM on fifth day of treatment. It counts as functional, cell-based. Conditions: Homo sapiens.
Assay [10] concerns DU-145. Nature of the assay: The concentration levels of putrescine (PU) evaluated for the polyamine and analogue levels in DU145 cells treated with the compound concentration of 0. uM on third day of treatment. It counts as functional, cell-based. The following applies: Homo sapiens.
The subject of assay [11] is DU-145. Nature of the assay: The concentration levels of spermine (SP), evaluated for the polyamine and analogue levels in DU145 cells treated with the compound concentration of 5 uM on fthird day of treatment. It counts as functional, cell-based. Conditions: Homo sapiens.
In another assay the test system is HT-29. The assay is described as follows: Growth inhibitory activity was measured for human HT-29 tumor cell line. The following applies: Homo sapiens, HT-29; read-out: ID50 (the source's name). It counts as functional.
Another assay concerns A549. Nature of the assay: Growth inhibitory activity was measured for human A549 tumor cell line. It counts as functional. The following applies: Homo sapiens, A549; read-out: ID50 (the source's name).
In assay [12] the test system is DU-145. Nature of the assay: The concentration levels of analogue evaluated for the polyamine and analogue levels in DU145 cells treated with the compound concentration of 0 uM on third day of treatment. It counts as functional, cell-based. The following applies: Homo sapiens.
Assay [13] deals with DU-145. The assay is described as follows: The concentration levels of putrescine (PU) evaluated for the polyamine and analogue levels in DU145 cells treated with the compound concentration of 5 uM on fifth day of treatment. It counts as functional, cell-based. The following applies: Homo sapiens.
Assay [14] deals with DU-145. Nature of the assay: The concentration levels of spermidine (SD) evaluated for the polyamine and analogue levels in DU145 cells treated with the compound concentration of 5 uM on fifth day of treatment. It counts as functional, cell-based. The following applies: Homo sapiens.
The test system of another assay is MCF7. The assay is described as follows: Growth inhibitory activity was measured for human MCF-7 tumor cell line. The following applies: read-out: ID50 (the source's name). It counts as functional.
Assay [15] has as its system DU-145. The assay is described as follows: The concentration levels of putrescine (PU) evaluated for the polyamine and analogue levels in DU145 cells treated with the compound concentration of 0 uM on fifth day of treatment. It counts as functional, cell-based. The following applies: Homo sapiens.
Assay [16] relates to DU-145. The assay is described as follows: The concentration levels of spermine (SP), evaluated for the polyamine and analogue levels in DU145 cells treated with the compound concentration of 0 uM on third day of treatment. It counts as functional, cell-based. Conditions: Homo sapiens.
For a further assay, the system named is U-251. The assay is described as follows: Growth inhibitory activity was measured for human U251MG NCI tumor cell line. It counts as functional. The following applies: read-out: ID50 (the source's name).
Assay [17] relates to DU-145. Nature of the assay: The concentration levels of spermine (SP), evaluated in DU145 cells treated with the compound concentration of 5 uM on third day of treatment. The following applies: Homo sapiens. It counts as functional, cell-based.
Assay [18] concerns DU-145. Nature of the assay: The concentration levels of spermidine (SD) evaluated in DU145 cells treated with the compound concentration of 0.02 uM on fifth day of treatment. It counts as functional, cell-based. Conditions: Homo sapiens.
For assay [19], the system named is DU-145. Nature of the assay: The concentration levels of spermine (SP) evaluated in DU145 cells treated with the compound concentration of 0.02 uM on fifth day of treatment. Conditions: Homo sapiens. It counts as functional, cell-based.
The test system of assay [20] is DU-145. Nature of the assay: The concentration levels of putrescine (PU) evaluated in DU145 cells treated with the compound concentration of 5 uM on fifth day of treatment. It counts as functional, cell-based. Conditions: Homo sapiens.
Assay [21] deals with DU-145. Nature of the assay: The concentration levels of analogue evaluated in DU145 cells treated with the compound concentration of 0.02 uM on third day of treatment. The following applies: Homo sapiens. It counts as functional, cell-based.
In assay [22] the test system is DU-145. Nature of the assay: The concentration levels of spermine (SP) evaluated in DU145 cells treated with the compound concentration of 5 uM on fifth day of treatment. It counts as functional, cell-based. The following applies: Homo sapiens.
Assay [23] has as its system DU-145. The assay is described as follows: The concentration levels of analogue evaluated in DU145 cells treated with the compound concentration of 0.02 uM on fifth day of treatment. It counts as functional, cell-based. Conditions: Homo sapiens.
Assay [24] deals with DU-145. Nature of the assay: The concentration levels of spermidine (SD) evaluated in DU145 cells treated with the compound concentration of 5 uM on fifth day of treatment. It counts as functional, cell-based. The following applies: Homo sapiens.
The subject of assay [25] is DU-145. The assay is described as follows: The concentration levels of putrescine (PU) evaluated in DU145 cells treated with the compound concentration of 5 uM on third day of treatment. It counts as functional, cell-based. Conditions: Homo sapiens.
Assay [26] relates to DU-145. Nature of the assay: The concentration levels of spermidine (SD), evaluated in DU145 cells treated with the compound concentration of 0.02 uM on third day of treatment. It counts as functional, cell-based. Conditions: Homo sapiens.
For assay [27], the system named is DU-145. The assay is described as follows: The concentration levels of analogue evaluated in DU145 cells treated with the compound concentration of 5 uM on fifth day of treatment. It counts as functional, cell-based. The following applies: Homo sapiens.
Assay [28] has as its system DU-145. The assay is described as follows: The concentration levels of spermine (SP), evaluated in DU145 cells treated with the compound concentration of 0.02 uM on third day of treatment. It counts as functional, cell-based. Conditions: Homo sapiens.
Assay [29] relates to DU-145. Nature of the assay: The concentration levels of putrescine (PU) evaluated in DU145 cells treated with the compound concentration of 0.02 uM on fifth day of treatment. The following applies: Homo sapiens. It counts as functional, cell-based.
Assay [30] concerns DU-145. The assay is described as follows: The concentration levels of analogue evaluated in DU145 cells treated with the compound concentration of 5 uM on third day of treatment. Conditions: Homo sapiens. It counts as functional, cell-based.
The subject of assay [31] is DU-145. Nature of the assay: The concentration levels of putrescine (PU) evaluated in DU145 cells treated with the compound concentration of 0.02 uM on third day of treatment. It counts as functional, cell-based. The following applies: Homo sapiens.
Assay [32] has as its system DU-145. The assay is described as follows: The concentration levels of spermidine (SD), evaluated in DU145 cells treated with the compound concentration of 5 uM on third day of treatment. It counts as functional, cell-based. Conditions: Homo sapiens.
Assay [33] has as its system DU-145. Nature of the assay: Growth inhibitory activity was measured for human DU145 tumor cell line. It counts as functional. Conditions: read-out: ID50 (the source's name).

In the case of `CCNCCCNCC#CCNCCCNCC`, the Concentration (nM (10e6*cells)-1) in the assay with DU-145 [1] stood at 1.55; in the assay on DU-145 [2] it was 0.04; with DU-145 [3] it was 1.73; in the assay on DU-145 [4], 2.16; in the assay with DU-145 [5], 0.9; in the assay with DU-145 [6] it was 1.33. For the same compound, the Concentration (nM (10e6*cells)-1) with DU-145 [7] came out at 1.71; in the assay on DU-145 [8], 0.03; with DU-145 [9], 1.55; in the assay with DU-145 [10], 0.11; with DU-145 [11] it was 2.56; with DU-145 [12], 0.06. Moreover, the Concentration (nM (10e6*cells)-1) with DU-145 [13] was 0.06; in the assay on DU-145 [14], 0.59; in the assay with DU-145 [15], 0.03; in the assay on DU-145 [16], 3.13. Moreover, the IC50 was more than 31.2 µM in the assay with PC-3 (Homo sapiens, PC-3); more than 31.2 µM in the assay on HT-29; more than 31.2 µM in the assay on A549; more than 31.2 µM in the assay on MCF7; more than 31.2 µM in the assay on U-251.

For `CCNCCCNCC1CCC1CNCCCNCC` (stereo in doubt; 15), the Concentration (nM (10e6*cells)-1) came out at 0.49 in the assay with DU-145 [17]; 1.6 in the assay with DU-145 [18]; 2.1 in the assay on DU-145 [19]; 0.031 in the assay with DU-145 [20]; 0.07 with DU-145 [21]; 0.2 in the assay with DU-145 [22]. Further, the Concentration (nM (10e6*cells)-1) with DU-145 [23] was found to be 0.05; in the assay with DU-145 [24], 0.06; with DU-145 [25], 0.036; in the assay on DU-145 [26] it was 2.13; in the assay on DU-145 [27] it was 1.84; in the assay with DU-145 [28], 3.54. For the same compound, the Concentration (nM (10e6*cells)-1) in the assay with DU-145 [29] turned out to be 0.081; in the assay with DU-145 [30] it was 1.75; in the assay on DU-145 [31] it was 0.162; in the assay on DU-145 [32] it was 0.15.

On to `CCNCCCNCC1CCC1CNCCCNCC` (stereo in doubt; 19), for which the IC50 with PC-3 was more than 31.2 µM; in the assay on DU-145 [33] it was 0.05 µM.
